Reference: the supplement of paper PMC10307832

Experiments:
Experiment in all cases: relative viability (nuclei count vs DMSO), 5 days (fraction); higher = more cells survive
[1] = compound: CCOC1=CC=CC=C1N=NC2=C(NN(C2=O)C3=NC(=CS3)C4=CC=CC=C4)C [BAM7]
Outline: (§1)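 Lung cancer cell lines in 1536-well plates were kept overnight at 37 °C, then pinned with five library-drug doses (not always all listed) spaced by √10 on vehicle-anchored plates. After 5 days without medium change, cells were fixed, permeabilised and Hoechst-stained in one step, imaged at 4×, and nuclei were counted with MetaXpress. Viability is treated-well nuclei divided by vehicle-well nuclei, taken as the median over plates. Plates passed only with control CV below 25% and at least one doubling.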

[2] = compound: CCn1c(-c2nonc2N)nc2c(C#CC(C)(C)O)ncc(OC[C@H]3CCCNC3)c21
Outline: as §1

[3] = compound: CCOC1=CC=CC=C1N=NC2=C(NN(C2=O)C3=NC(=CS3)C4=CC=CC=C4)C [BAM7] + CC1(C)CCC(c2ccc(Cl)cc2)=C(CN2CCN(c3ccc(C(=O)NS(=O)(=O)c4ccc(N[C@H](CCN5CCOCC5)CSc5ccccc5)c(S(=O)(=O)C(F)(F)F)c4)cc3)CC2)C1 [Navitoclax] (partner 0.5 µM)
Outline: (§2)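 Relative viability equals treated-well nuclei counts divided by vehicle-well nuclei counts. Counts came from 4× images of lung cancer cell lines grown in 1536-well plates for 5 days after pin-tool dosing on the day after seeding. Dosing used one drug alone or a fixed anchor-drug dose plus five library-drug doses (not always all listed) in √10 steps, and values are medians of duplicate plates.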

[4] = compound: CCn1c(-c2nonc2N)nc2c(C#CC(C)(C)O)ncc(OC[C@H]3CCCNC3)c21 + N=C(N)NC(=N)NCCc1ccccc1 [Phenformin] (partner 250 µM)
Outline: as §2

Cell Line	relative viability ([1]; 0.5 µM)	relative viability ([1]; 5 µM)	relative viability ([1]; 15.81 µM)	relative viability ([1]; 50 µM)	relative viability ([2]; 0.01 µM)	relative viability ([2]; 0.03162 µM)	relative viability ([2]; 0.1 µM)	relative viability ([2]; 0.3162 µM)	relative viability ([2]; 1 µM)	relative viability ([3]; first compound 0.5 µM)	relative viability ([3]; first compound 5 µM)	relative viability ([3]; first compound 15.81 µM)	relative viability ([3]; first compound 50 µM)	relative viability ([4]; first compound 0.01 µM)	relative viability ([4]; first compound 0.03162 µM)	relative viability ([4]; first compound 0.1 µM)	relative viability ([4]; first compound 0.3162 µM)	relative viability ([4]; first compound 1 µM)
NCI-H647	1.02	1.07	0.894	1.07	0.982	0.995	0.952	0.918	0.981	1.11	1.16	0.899	1.14	0.595	0.573	0.554	0.399	0.345
NCI-H2023	0.917	0.823	0.793	1.02	0.929	0.949	0.909	0.767	0.834	1.04	0.888	0.886	0.982	0.4	0.409	0.412	0.3	0.34
NCI-H23	1.21	1.06	1.04	1.06	0.918	0.939	0.878	0.902	0.852	0.978	0.846	0.921	0.934	0.729	0.783	0.817	0.8	0.781
NCI-H1944	0.947	0.949	0.857	1	0.941	0.922	0.919	0.935	1.01	1.07	1.14	0.875	0.882	0.196	0.196	0.207	0.181	0.196
NCI-H1793	0.963	0.838	0.899	1.03	0.936	0.879	0.751	0.859	0.942	0.401	0.565	0.437	0.411	0.339	0.436	0.371	0.331	0.401
NCI-H520	1	1.02	1.01	1.09	0.905	0.921	0.779	0.753	0.665	1.09	1.2	1.11	1.18	0.424	0.561	0.303	0.236	0.233
A549	1.01	1.07	0.948	1.03	0.934	0.995	0.996	0.896	0.951	1.34	1.27	1.16	1.27	0.197	0.212	0.164	0.17	0.154
NCI-H460	1.02	0.989	0.895	0.969	0.977	0.983	0.983	0.998	0.949	1.36	1.36	1.03	1.08	0.518	0.561	0.523	0.495	0.541
EKVX	1.05	0.982	0.843	0.86	0.962	0.942	0.97	0.933	0.924	1.13	0.982	0.71	1.01	0.232	0.231	0.217	0.217	0.195
EPLC-272H	0.989	0.95	0.95	0.995	0.874	0.936	0.869	0.91	0.87	1.32	1.21	1.15	1.17	0.275	0.333	0.32	0.291	0.255
NCI-H1395	0.884	1.01	0.944	1.1	0.848	0.693	0.762	0.737	0.705	1.15	1.14	1.1	1.13	0.417	0.416	0.418	0.376	0.388
NCI-H2126	0.944	0.879	0.867	0.898	0.98	0.908	0.995	0.996	1.02	0.841	0.857	0.86	0.849	0.565	0.498	0.513	0.496	0.478
LXF-289	1.06	1.07	1.01	0.929	1.03	0.991	1.03	0.972	1.11	0.96	1.04	0.93	0.907	0.511	0.54	0.507	0.511	0.534
NCI-H2009	1.04	1.12	0.994	1.04	1	1	1.02	0.95	0.932	1.25	1.17	1.15	1.17	0.473	0.491	0.519	0.458	0.452
NCI-H2405	0.989	1.13	1.03	1.08	1.05	0.934	0.973	0.969	0.993	0.946	1.11	0.747	1	0.402	0.385	0.295	0.355	0.344
NCI-H1755	1.02	1.03	0.978	1.02	0.989	1.03	0.973	0.903	1.01	1.04	1.04	0.886	1.01	0.604	0.606	0.614	0.613	0.605
HCC-78	1.06	0.879	1.07	1.04	0.882	0.926	0.971	0.962	0.844	0.901	0.69	0.658	0.796	0.655	0.755	0.711	0.588	0.67
